Entries after “also recorded” stand apart in the source; their conditions may differ.
Columns and labels:
[1] = system: pre-mRNA of the mutant human IKBKAP gene having the IVS20+6T→C mutation; test: two-color fluorescent FD-type splicing reporter construct in HeLa cells (GFP/RFP); assay type: cell-based; conditions: HeLa cells transfected with FD-type reporter construct
From the text: A reporter construct (FD type) as illustrated in FIG. 1B was produced by utilizing exons 19 to 21 of a mutant human IKBKAP gene having the IVS20^+6T→C mutation as illustrated in FIG. 1A. In the reporter construct, a gene for a GST protein, exons 19 to 21 of a mutant human IKBKAP gene, a red fluorescent protein (RFP), and a green fluorescent protein (GFP) were connected in this order downstream of a CAG promoter. When this reporter construct underwent wild-type splicing, the gene for a GST protein and exons 19 to 21 of the mutant human IKBKAP gene were joined to form an mRNA of 3n+1 bases in length, and a stop codon (UAA) of the RFP gene was out-of-frame, so that the GFP gene was translated in the frame to express a green fluorescent protein. On the other hand, when this reporter construct underwent abnormal splicing, the gene for a GST protein and exons 19 to 21 of the mutant human IKBKAP gene were joined to form an mRNA of 3n bases in length, so that the RFP gene and the stop codon (UAA) of the RFP gene were translated in the frame to express a red fluorescent protein. The FD-type reporter construct was used to screen a compound capable of inhibiting abnormal splicing of a pre-mRNA that was transcribed from the construct. Specifically, the FD-type reporter construct was transfected into HeLa cells, and then a test compound was brought into contact with the HeLa cells and cultured. Next, fluorescence observation was performed after a predetermined time, and the fluorescence intensity ratio (GFP/RFP) of GFP (normal splicing products) to RFP (abnormal splicing products) was compared to the control (e.g., a solvent alone or kinetin (reference compound 1)), so that the compound with higher fluorescence intensity was determined. […] The FD-type reporter construct was transfected into HeLa cells, and then the compound 1 was brought into contact with the HeLa cells and cultured (compound concentration: […], and 50.0 μM). Next, fluorescence observation was performed each after 24 hours and 48 hours, and the fluorescence intensity ratio (GFP/RFP) was determined. […]

[2] = system: endogenous IKBKAP gene with the IVS20+6T→C mutation in cells of FD patients; test: RT-PCR of spliced products of the endogenous IKBKAP gene in cells of FD patients; assay type: cell-based, human; conditions: cultured 60 hours
Protocol: The cells of FD patients were obtained from Coriell Institute. The endogenous IKBKAP gene in the cells of FD patients had the IVS20^+6T→C mutation. Compound 1 and the kinetin were added at a concentration of 2 μM or 50 μM to a culture medium of the cells of FD patients. The cells were cultured for 60 hours, collected, and then subjected to RT-PCR. As the control, untreated cells and DMSO (solvent) treated cells were used. FIG. 4 illustrates the results.

[3] = system: IKBKAP gene with the IVS20+6T→C mutation; conditions: disclosed in U.S. Pat. No. 7,737,110; cited from earlier work

SMILES	fluorescence intensity ratio (GFP/RFP) of GFP (normal splicing) to RFP (abnormal splicing) ([1]; 0.4, 2.0, 0.10, and 50.0 μM, after 24 hours and 48 hours)	degree of increase of GFP/RFP ratio compared with kinetin ([1]; after 24 hours and 48 hours)	screening outcome: GFP/RFP fluorescence intensity ratio compared to the control (solvent alone or kinetin) ([1]; after a predetermined time)	spliced products (mRNAs) of the endogenous IKBKAP gene by RT-PCR ([2]; 2 μM or 50 μM)	abnormal splicing inhibition activity compared with kinetin ([2]; RT-PCR)	concentration capable of inhibiting abnormal splicing ([2]; RT-PCR) [µM]	inhibition of abnormal splicing of the IKBKAP gene with the IVS20+6T→C mutation [3]
Clc1nc(NCc2ccco2)c2nc[nH]c2n1 [compound 1, 2-chloro-N-(2-furanylmethyl)-7H-purin-6-amine]	increased in a concentration-dependent manner; also recorded: increases the GFP/RFP ratio in a concentration-dependent manner	significantly higher than that of the kinetin; also recorded: superior to that of kinetin	selected as a candidate compound for inhibiting abnormal splicing	reduces the abnormal splicing products and increases the normal splicing products	about the same as that of the kinetin at a concentration of 50 μM; also recorded: superior to that of kinetin	≤ 2	
c1coc(CNc2ncnc3nc[nH]c23)c1 [kinetin]							can inhibit abnormal splicing

Source: patent publication US9879014B2, “Method for screening substance capable of inhibiting abnormal splicing causative of onset or progress of disease” (KYOTO UNIVERSITY, priority 2013, dated 2018)
